The source of these data is patent US20230181556A1, “USE OF PSYCHOTROPIC DRUGS FOR THE TREATMENT OF CORONAVIRUS INFECTIONS” (priority 2020, published 2023).

“Also recorded” adds a separate entry of the source.

The subject of one series is Vero-E6 cells. Description: cytotoxicity in mock infected cells. The format is cell-based. The settings on record: same experiment (10 μM, 5 μM and 2 μM). How it is done: One day prior to the assay, Vero-E6 cells (ATCC® CRL-1586) were plated in a 96-wells flat bottom tissue culture treated plate at a density of 2×10^4 cells/well. On the day of the assay, Vero-E6 cells were pre-treated with the different concentration (i.e. 10 μM, 5 μM and 2 μM) of the indicated drugs diluted in Dulbecco's Modified Eagles Medium (DMEM). After 1 h, the cells were infected with 50 μl of a viral inoculum at 1×10^3 TCID50/ml and incubated for 2 h at 37° C. to allow infection. Then, the virus-drug mixture was removed, cells were rinsed 3 times with PBS and were further cultured with fresh drug-containing medium (DMEM 5% FBS) for 3 days until microscopic examination was performed. Cytotoxicity of the tested drugs were determined in the same experiment in mock infected cells. The half maximal inhibitory concentration (IC50) were analyzed by non-linear regression using a four-parameter dosage-response variable slope model with the GraphPad Prism 8.0.2 software (GraphPad Software, USA).

Series [1] concerns viruses as listed per drug. The settings on record: virus or effect named in the literature; cited from earlier work.
A further series has as its system phospholipidosis. The settings on record: cited from earlier work.
The conditions of series [2]: under 20 μM concentrations; Hou et al.; cited from earlier work.
Series [3] deals with spike protein-ACE2 interaction (Homo sapiens, UniProt Q9BYF1). The settings on record: Hou et al., Chemico-Biological Interactions 338 (2021) 109420; cited from earlier work.
Chain of spike protein-ACE2 interaction (Q9BYF1 18-805): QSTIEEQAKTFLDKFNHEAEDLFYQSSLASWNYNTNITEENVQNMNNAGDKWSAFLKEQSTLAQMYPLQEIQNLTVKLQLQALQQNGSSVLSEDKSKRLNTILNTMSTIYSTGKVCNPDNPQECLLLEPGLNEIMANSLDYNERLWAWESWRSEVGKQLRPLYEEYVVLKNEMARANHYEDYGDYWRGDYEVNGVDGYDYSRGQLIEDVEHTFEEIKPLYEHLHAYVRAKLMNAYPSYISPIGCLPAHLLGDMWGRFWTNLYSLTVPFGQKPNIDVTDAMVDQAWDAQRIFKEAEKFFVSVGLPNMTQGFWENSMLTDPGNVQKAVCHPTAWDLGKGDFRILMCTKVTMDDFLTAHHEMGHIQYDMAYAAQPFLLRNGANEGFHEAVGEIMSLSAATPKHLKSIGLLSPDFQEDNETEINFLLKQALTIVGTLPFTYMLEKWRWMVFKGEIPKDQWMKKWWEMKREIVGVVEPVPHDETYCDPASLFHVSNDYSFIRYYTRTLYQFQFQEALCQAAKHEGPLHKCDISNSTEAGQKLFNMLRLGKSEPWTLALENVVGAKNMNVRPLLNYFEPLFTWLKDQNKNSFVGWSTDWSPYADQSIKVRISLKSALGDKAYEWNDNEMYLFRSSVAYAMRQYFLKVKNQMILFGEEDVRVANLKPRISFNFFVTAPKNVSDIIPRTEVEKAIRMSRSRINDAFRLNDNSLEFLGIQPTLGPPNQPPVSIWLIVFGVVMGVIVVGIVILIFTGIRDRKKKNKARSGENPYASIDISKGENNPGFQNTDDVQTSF

`CN1CCCC(n2nc(Cc3ccc(Cl)cc3)c3ccccc3c2=O)CC1` (stereo not drawn) [Azelastine]: in the series on Vero-E6 cells, the Cytotoxicity entry is listed as “not found to be cytotoxic”. For `O=C(O)COCCN1CCN(C(c2ccccc2)c2ccc(Cl)cc2)CC1` (stereo not drawn) [Cetirizine], the “Examples of published in vitro antiviral activity” value (from here on “Examples of published”) in series [1] was “HRV (Antiviral”. For `CCN(CC)CCCC(C)Nc1ccnc2cc(Cl)ccc12` (stereo not drawn) [Chloroquine], the “PLD, known” value in the series with phospholipidosis is on record as “PLD compound”. In addition, the “Examples of published” value in series [1] is “MERS, SARS,; also recorded: Filovirus”. Consider `CN(C)CCOC(C)(c1ccccc1)c1ccc(Cl)cc1` (stereo not drawn) [Chlorphenoxamine], for which the “Examples of published” value in series [1] is recorded as “MERS, SARS”. On to `CN(C)CCCN1c2ccccc2Sc2ccc(Cl)cc21` [Chlorpromazine], for which the “PLD, known” value with phospholipidosis was “PLD agent”. Further, the “Examples of published” value in series [1] is “MERS, SARS”. Consider `CCN(CC)CCOc1ccc(C(=C(Cl)c2ccccc2)c2ccccc2)cc1` [Clomifene], for which the “Examples of published” value in series [1] is “Ebola, HCV”.

As to `CN(C)CCCN1c2ccccc2CCc2ccc(Cl)cc21` [Clomipramine], in series [1], the “Examples of published” value is “MERS, SARS”.

Take `Clc1ccc(C(OCCN2CCCCC2)c2ccccc2)cc1` (stereo not drawn) [Cloperastine]: the “Examples of published” value in series [1] is reported as “SARS-CoV-2”.

Consider `Clc1ccc2c(c1)CCc1cccnc1C2=C1CCNCC1` [Desloratadine], for which the Cytotoxicity result with Vero-E6 cells is on record as “not found to be cytotoxic”; in series [2] it was “No cytotoxicity was observed”.

For the compound `O=C(CCCN1CCC(O)(c2ccc(Cl)cc2)CC1)c1ccc(F)cc1` [Haloperidol], in series [1], the “Examples of published” value was “SARS-CoV-2”. Regarding `CCN(CCO)CCCC(C)Nc1ccnc2cc(Cl)ccc12` (stereo not drawn) [Hydroxyl-chloroquine], the “Examples of published” value in series [1] is on record as “SARS-Cov-2”.

As for `CCOC(=O)N1CCC(=C2c3ccc(Cl)cc3CCc3cccnc32)CC1` [Loratadine], the Cytotoxicity entry in series [2] was “No cytotoxicity was observed”. Besides, the “block of spike protein-ACE2 interaction” value in series [3] is recorded as “efficient to block spike protein-ACE2 interaction”.

For the compound `COc1ccc2[nH]cc(CCNC(C)=O)c2c1` [Melatonin], the “Examples of published” value in series [1] is “Possible roles”. As for `CC(CN1c2ccccc2Sc2ccccc21)N(C)C` (stereo not drawn) [Promethazine], in the series on Vero-E6 cells, the Cytotoxicity entry is “not found to be cytotoxic”. Moreover, the “Examples of published” value in series [1] is “Ebola (Sci Transl Med”.

With `CN[C@H]1CC[C@@H](c2ccc(Cl)c(Cl)c2)c2ccccc21` [Sertraline], the “PLD, known” value in the series with phospholipidosis is on record as “PLD compound”. Also, the “Examples of published” value in series [1] is on record as “Ebola virus; also recorded: Zika Virus; also recorded: HIV in vivo”.
